Laboratory results taken from ChEMBL document CHEMBL1201862, “PubChem BioAssay data set” (2004).
The source made the active and inactive calls.

Tests used:
[1] = target: Ras and Rab interactor 1/Tyrosine-protein kinase ABL1 (Homo sapiens, UniProt P00519+Q13671); format: functional;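 also: biochemical TR-FRET dose-response test measuring inhibition of binding between Rin1 and Abl proteins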
[2] = target: T1, Interleukin-8 (Homo sapiens, UniProt P10145); experiment: Dose Response confirmation of uHTS small molecule hits for cystic fibrosis induced NFkb Inhibitors in a PAF-induced IL8 counterscreen.; format: functional; conditions: read-out: IC50_Mean
T1 sequence (P10145 whole entry): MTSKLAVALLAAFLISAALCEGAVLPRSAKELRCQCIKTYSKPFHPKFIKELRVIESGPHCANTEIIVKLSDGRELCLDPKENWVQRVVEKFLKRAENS

[3] = target: T1, Interleukin-8; experiment: Dose Response confirmation of uHTS small molecule hits for cystic fibrosis induced NFkb Inhibitors in a TNFa-induced IL8 counterscreen.; format: functional; conditions: read-out: IC50_Mean
[4] = target: Beta Lactamase (Pseudomonas aeruginosa, UniProt Q932Y6); experiment: BLA reporter interference, concentration series – BLA reporter cells, FRET fluorescence, artefact control for TLR9-MyD88 binding inhibitor project, dose response (AID 588341); format: cell-based;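 also: cell based assay in CHO-K1 cells stably expressing beta-lactamase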
Sequence of Beta Lactamase (Q932Y6 whole entry): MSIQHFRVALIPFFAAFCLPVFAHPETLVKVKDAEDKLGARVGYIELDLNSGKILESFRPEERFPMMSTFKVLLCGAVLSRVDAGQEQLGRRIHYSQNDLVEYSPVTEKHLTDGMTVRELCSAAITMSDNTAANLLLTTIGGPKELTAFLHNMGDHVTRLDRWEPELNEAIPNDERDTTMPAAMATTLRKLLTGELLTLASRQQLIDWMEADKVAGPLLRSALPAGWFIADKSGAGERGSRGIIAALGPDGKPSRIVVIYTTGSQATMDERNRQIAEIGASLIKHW

[5] = target: T2, Protein RecA (Mycobacterium tuberculosis, UniProt P9WHJ3); experiment: Fluorescence Cell-Free Homogeneous Dose Retest to Identify Inhibitors of RecA-Intein Splicing Activity. [Related pubchem assays (depositor defined):AID2097, AID2223, AID489010, AID492950]; format: functional
T2 sequence (P9WHJ3 whole entry): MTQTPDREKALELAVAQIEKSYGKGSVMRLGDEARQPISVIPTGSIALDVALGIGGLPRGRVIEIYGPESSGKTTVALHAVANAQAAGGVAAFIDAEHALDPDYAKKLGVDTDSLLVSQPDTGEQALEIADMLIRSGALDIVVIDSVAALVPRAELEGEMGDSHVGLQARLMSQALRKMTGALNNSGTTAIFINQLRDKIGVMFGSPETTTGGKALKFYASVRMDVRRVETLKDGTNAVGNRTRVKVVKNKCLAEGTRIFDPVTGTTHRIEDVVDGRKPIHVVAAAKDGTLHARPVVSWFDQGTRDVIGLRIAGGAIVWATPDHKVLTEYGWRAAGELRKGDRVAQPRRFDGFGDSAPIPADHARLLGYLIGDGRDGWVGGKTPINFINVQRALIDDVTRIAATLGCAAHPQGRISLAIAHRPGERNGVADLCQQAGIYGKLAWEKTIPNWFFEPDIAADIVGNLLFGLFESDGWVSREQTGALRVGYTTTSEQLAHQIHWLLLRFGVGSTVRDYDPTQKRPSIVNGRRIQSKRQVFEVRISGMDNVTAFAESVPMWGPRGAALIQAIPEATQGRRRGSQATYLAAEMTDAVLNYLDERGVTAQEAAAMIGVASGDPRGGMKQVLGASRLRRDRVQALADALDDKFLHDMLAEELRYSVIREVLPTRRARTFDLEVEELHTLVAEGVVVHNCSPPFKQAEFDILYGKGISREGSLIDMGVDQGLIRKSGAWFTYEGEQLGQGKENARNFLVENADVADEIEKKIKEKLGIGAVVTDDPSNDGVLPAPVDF

[6] = target: ATP-binding cassette sub-family B member 6 (Homo sapiens, UniProt Q9NP58); experiment: concentration-dependent ABCB6 porphyrin transport blockade – K562-ABCB6 cells, flow cytometry, cherry pick 1, dose response (AID 623955); format: functional; conditions: read-out: EC50_MICROM
Sequence of ATP-binding cassette sub-family B member 6 (Q9NP58 whole entry): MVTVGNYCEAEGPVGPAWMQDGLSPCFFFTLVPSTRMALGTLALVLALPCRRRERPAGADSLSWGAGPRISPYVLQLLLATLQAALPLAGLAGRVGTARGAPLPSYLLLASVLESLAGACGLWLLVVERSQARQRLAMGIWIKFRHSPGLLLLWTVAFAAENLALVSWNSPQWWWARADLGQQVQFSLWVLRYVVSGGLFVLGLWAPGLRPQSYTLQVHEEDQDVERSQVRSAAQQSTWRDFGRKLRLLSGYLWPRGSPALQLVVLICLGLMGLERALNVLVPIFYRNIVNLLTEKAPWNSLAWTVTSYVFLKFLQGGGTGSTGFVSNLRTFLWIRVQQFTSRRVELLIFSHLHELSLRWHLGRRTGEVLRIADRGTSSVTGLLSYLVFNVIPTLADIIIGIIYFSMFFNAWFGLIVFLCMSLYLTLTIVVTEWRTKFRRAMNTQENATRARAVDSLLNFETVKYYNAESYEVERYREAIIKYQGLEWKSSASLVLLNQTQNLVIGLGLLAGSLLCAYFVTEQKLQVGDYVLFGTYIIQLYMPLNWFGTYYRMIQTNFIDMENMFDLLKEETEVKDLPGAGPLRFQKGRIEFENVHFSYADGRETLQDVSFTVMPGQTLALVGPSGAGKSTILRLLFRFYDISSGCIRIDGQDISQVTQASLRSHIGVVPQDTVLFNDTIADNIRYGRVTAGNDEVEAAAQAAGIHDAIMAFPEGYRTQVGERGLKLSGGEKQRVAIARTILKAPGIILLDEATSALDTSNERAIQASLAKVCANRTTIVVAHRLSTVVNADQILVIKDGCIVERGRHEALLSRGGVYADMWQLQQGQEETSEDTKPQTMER

[7] = non-specific 3'UTR reporter inhibition in Clone20-Shn3RL – cell-based, Renilla luciferase, cherry-picked, counter-screen for Shn3 inhibitor project, dose response (AID 624133); format: functional
[8] = loss of viability in HepG2 cells – cell-based, CellTiter-Glo, cherry-picked, cytotoxicity control for Shn3 inhibitor project, dose response (AID 624134); format: functional
[9] = tested on: Streptococcus; experiment: GAS UMAA2166 growth inhibition – luminescence, BacTiterGlo, counter-screen for streptokinase expression inhibitor project, dose response (AID 1915); format: functional, organism-based;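 also: potency for reduction of bacterial viability or growth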
[10] = tested on: INS1; experiment: INS-1E survival protection against cytokine death – cell-based, luminescence, retest, dose response (AID 449756); format: functional; conditions: Rattus norvegicus;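 also: cell death triggered by IL-1 beta plus TNF-alpha plus IFN-gamma mixture; protective hits raise ATP signal compared with cytokine alone wells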
[11] = target: T3, Streptokinase A (Streptococcus pyogenes serotype M1, UniProt P10520); experiment: viability-normalized secreted streptokinase activity reduction – plasminogen activation absorbance, OD405, dose response (AID 1914); format: functional, Streptococcus pyogenes M1 GAS;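 also: secreted streptokinase activity via plasminogen activation per viability signal from cell pellet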
T3 sequence (P10520 whole entry): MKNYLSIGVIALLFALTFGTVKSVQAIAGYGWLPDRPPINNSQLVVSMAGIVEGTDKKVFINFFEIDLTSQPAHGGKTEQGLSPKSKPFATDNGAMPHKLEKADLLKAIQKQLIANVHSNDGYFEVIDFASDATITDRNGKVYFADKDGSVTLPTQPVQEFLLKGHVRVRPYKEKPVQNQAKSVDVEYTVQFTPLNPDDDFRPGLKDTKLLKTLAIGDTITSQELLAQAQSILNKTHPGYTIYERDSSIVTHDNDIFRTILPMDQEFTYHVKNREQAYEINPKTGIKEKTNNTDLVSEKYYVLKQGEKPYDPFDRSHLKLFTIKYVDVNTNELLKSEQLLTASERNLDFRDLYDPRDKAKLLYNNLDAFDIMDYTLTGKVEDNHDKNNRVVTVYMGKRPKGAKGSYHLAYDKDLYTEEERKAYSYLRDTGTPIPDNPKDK

[12] = target: Heat shock protein HSP 90-alpha (Homo sapiens, UniProt P07900); format: functional, organism-based
[13] = tested on: CHO; experiment: CHO cell viability loss, potency – luminescence, cytotoxicity control for TLR9-MyD88 binding inhibitor project, dose response (AID 588339); format: functional, cell-based, hamster; conditions: Cricetulus griseus;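 also: CHO cells stably coexpressing TLR9 and MyD88 fusions from primary screen; compound exposure lasted 48 hours before viability readout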
[14] = tested on: Streptococcus sp. 'group A'; experiment: Streptococcus pyogenes SK(-)GAS viability under kanamycin – luminescence, BacTiterGlo, confirmation, counter-screen for streptokinase expression inhibitor project, dose response (AID 1900); format: functional, organism-based
[15] = target: T4, Replicative DNA helicase DnaB (Mycobacterium tuberculosis, UniProt P9WMR3); experiment: DnaB intein splicing inhibitors, dose response, biochemical, cell-free fluorescence (AID 449749); format: functional
T4 sequence (P9WMR3 whole entry): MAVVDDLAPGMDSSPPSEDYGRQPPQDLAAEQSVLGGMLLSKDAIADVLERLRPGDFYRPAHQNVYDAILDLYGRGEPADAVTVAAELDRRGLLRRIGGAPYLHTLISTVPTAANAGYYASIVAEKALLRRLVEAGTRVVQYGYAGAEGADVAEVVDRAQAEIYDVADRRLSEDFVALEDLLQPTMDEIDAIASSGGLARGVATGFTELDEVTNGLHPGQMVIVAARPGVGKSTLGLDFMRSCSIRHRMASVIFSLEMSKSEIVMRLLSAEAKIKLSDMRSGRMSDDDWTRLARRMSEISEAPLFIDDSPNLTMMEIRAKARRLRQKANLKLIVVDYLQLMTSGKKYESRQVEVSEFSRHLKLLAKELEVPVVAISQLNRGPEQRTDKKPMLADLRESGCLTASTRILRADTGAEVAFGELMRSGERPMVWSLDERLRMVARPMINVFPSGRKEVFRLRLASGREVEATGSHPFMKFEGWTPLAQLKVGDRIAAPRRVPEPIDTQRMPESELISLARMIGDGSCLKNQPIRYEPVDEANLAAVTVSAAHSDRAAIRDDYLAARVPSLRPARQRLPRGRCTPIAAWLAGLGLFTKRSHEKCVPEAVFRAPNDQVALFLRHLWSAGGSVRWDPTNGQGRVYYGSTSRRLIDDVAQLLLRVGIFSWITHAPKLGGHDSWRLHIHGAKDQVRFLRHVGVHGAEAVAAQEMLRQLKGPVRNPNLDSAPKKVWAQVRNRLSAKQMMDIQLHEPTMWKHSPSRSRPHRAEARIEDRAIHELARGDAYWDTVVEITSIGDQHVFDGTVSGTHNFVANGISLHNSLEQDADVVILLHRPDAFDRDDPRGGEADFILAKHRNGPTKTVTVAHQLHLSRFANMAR

[16] = reduction of Shn3 3'UTR-driven luciferase in osteoblasts – cell-based, Clone20 osteoblasts, firefly luciferase, cherry-picked, dose response (AID 624132); format: functional;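 also: firefly luciferase luminescence from reporter carrying the Shn3 3'UTR in osteoblasts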
[17] = target: T5, Polyadenylate-binding protein 1 (Homo sapiens, UniProt P11940); experiment: MLLE domain peptide-binding blockers, IC50 – biochemical, fluorescence polarization, FITC-PAM2 peptide, dose response (AID 602259); format: functional; conditions: read-out: IC50_Mean
T5 sequence (P11940 whole entry, the tested form may be a part): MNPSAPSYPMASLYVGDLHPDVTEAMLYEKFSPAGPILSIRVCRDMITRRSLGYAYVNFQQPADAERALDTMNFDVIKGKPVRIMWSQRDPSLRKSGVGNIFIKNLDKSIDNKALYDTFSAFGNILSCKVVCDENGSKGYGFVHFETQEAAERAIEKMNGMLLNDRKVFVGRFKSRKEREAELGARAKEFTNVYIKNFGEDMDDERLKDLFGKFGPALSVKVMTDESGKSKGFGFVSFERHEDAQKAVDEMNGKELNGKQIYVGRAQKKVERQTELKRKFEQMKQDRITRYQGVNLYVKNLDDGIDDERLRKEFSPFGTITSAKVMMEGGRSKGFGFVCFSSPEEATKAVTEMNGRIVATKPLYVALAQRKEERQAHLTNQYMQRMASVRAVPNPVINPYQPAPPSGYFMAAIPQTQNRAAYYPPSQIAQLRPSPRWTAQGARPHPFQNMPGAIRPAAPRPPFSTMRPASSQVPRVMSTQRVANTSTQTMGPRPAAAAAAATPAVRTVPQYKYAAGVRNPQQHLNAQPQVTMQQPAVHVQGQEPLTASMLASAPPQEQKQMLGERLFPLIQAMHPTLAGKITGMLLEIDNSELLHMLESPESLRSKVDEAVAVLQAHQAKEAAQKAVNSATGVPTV

[18] = target: T5, Polyadenylate-binding protein 1; experiment: MLLE binding blockers, Cy5 peptide tracer – biochemical, fluorescence polarization, Cy5-PAM2 peptide, secondary, miRNA deadenylation inhibitor project, dose response (AID 602260); format: functional; conditions: read-out: IC50_Mean
[19] = target: DNA (cytosine-5)-methyltransferase 1 (Homo sapiens, UniProt P26358); experiment: inhibition of DNA methylation by DNMT1 – biochemical, fluorescent molecular beacon, confirmation (AID 602386); format: functional
Sequence of DNA (cytosine-5)-methyltransferase 1 (P26358 whole entry): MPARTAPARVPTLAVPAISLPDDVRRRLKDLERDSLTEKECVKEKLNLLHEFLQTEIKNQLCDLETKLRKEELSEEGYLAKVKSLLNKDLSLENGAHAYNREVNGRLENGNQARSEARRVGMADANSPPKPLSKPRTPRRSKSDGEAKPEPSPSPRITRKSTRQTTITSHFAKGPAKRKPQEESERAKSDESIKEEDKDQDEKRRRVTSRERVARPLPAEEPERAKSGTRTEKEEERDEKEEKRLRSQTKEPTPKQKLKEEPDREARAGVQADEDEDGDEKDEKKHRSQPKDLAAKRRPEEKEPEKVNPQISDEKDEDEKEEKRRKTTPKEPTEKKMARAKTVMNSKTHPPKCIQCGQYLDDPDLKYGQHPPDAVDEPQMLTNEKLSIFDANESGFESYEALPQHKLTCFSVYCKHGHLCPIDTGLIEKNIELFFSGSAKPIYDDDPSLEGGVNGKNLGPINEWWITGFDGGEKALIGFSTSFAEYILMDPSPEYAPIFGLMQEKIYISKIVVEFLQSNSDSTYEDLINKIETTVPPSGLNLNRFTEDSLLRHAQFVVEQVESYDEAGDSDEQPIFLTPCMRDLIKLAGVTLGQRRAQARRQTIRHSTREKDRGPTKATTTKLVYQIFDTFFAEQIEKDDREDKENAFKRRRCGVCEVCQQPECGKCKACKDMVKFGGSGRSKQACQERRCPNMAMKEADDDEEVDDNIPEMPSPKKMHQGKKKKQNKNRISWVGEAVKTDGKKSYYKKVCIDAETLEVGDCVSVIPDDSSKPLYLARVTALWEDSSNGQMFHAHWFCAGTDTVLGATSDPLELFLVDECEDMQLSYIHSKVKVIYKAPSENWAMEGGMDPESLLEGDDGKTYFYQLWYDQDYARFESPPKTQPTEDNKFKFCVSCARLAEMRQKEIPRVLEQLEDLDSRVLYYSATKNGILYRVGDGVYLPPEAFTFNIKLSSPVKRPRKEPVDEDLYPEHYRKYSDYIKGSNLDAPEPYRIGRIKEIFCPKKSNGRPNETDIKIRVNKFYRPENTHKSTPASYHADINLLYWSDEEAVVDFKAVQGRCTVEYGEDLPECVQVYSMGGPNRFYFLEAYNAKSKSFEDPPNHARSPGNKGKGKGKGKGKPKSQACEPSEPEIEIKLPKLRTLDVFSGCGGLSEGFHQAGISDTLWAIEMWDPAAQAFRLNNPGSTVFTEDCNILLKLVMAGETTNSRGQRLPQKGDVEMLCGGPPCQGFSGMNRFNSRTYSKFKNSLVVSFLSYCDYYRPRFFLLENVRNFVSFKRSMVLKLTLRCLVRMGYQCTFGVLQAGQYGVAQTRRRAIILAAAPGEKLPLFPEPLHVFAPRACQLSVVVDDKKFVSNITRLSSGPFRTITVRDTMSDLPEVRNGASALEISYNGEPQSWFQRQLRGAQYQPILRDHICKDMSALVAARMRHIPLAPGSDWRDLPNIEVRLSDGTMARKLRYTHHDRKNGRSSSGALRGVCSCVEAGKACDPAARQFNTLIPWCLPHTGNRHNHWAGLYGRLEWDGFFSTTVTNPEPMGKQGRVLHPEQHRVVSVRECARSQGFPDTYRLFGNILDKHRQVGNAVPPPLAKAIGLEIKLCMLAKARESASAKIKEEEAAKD

Q: Which IC50 [1] does the source give for `O=C(CC1SCCNC1=O)Nc1cc(Cl)cc(Cl)c1` (centres undefined) here?
A: Its IC50 is 26.4 µM (inactive).

Q: For `CC1=C(C(=O)OCc2ccc3c(c2)OCO3)C(c2ccc(O)c([N+](=O)[O-])c2)NC(=O)N1` (centres undefined), which IC50 [2] is on record?
A: The IC50 was 63.7 µM (inactive).

Q: What about the IC50 [3] of the same compound?
A: The IC50 was 39.8 µM (inactive).

Q: With `COC(=O)c1ccc(NC(=O)c2nc(S(=O)(=O)Cc3cccc(C)c3)ncc2Cl)cc1` as the compound, how does the IC50 [4] read?
A: Its IC50 is 10.7 µM (inactive).

Q: What about the EC50 [5] of the same compound?
A: Its EC50 is 0.228 µM (active).

Q: What about the EC50 [6] of the same compound?
A: The EC50 was 44.2 µM (active).

Q: And the AC50 [7]?
A: The AC50 was 5.82 µM (active).

Q: And the AC50 [8]?
A: The AC50 was 33.5 µM (active).

Q: And the EC50 [9]?
A: The EC50 was 3.07 µM (active).

Q: What about the AC50 [10] of the same compound?
A: Its AC50 is 7.28 µM (active).

Q: What about the EC50 [11] of the same compound?
A: The EC50 was > 150 µM (not active).

Q: What about the AC50 [12] of the same compound?
A: Its AC50 is 1.26 µM (active).

Q: What about the IC50 [13] of the same compound?
A: The IC50 was 2.53 µM (active).

Q: What about the EC50 [14] of the same compound?
A: The EC50 was 0.941 µM (active).

Q: What about the AC50 [15] of the same compound?
A: The AC50 was 0.389 µM (active).

Q: And the AC50 [16]?
A: Its AC50 is 1.35 µM (active).

Q: What does the source list for `O=C1c2sccc2-c2cccc3cccc1c23`?
A: IC50 [17]: 25.5 µM (inactive); IC50 [18]: > 66 µM (inactive); IC50 [19]: 1.02 µM (active)
